Laboratory results taken from article PMC5923414, “Terpenoids from the Soft Coral Sinularia sp. Collected in Yongxing Island” (Marine Drugs, 2018).
Like-named read-outs stand apart in the source and are kept apart here.

Key:
[1] = test system: Plasmodium falciparum 3D7; test: in vitro antimalarial activity, SYBR-Green assay; format: cell-based; conditions: 10 nM dihydroartemisinine as positive control, read-out: IC50, antimalarial activity against P. falciparum 3D7
Description: The in vitro antimalarial activity was assessed against P. falciparum (3D7) using an SYBR-Green assay with 10 nM dihydroartemisinine as positive control. Twelve diluted samples (5 µM, 10 µM, 20 µM, 40 µM, 80 µM, 100 µM, 200 µM, 400 µM, 800 µM, 1 mM, 2 mM, and 4 mM) were added to the test wells to obtain the 50% inhibiting concentration.

influenza A virus (H1N1) = test: antiviral activity, CPE inhibition assay; format: cell-based
Description: (§1) The antiviral activities against influenza A virus (H1N1) and (PR8) were evaluated by the CPE inhibition assay as the literature reported. […]

influenza A virus (PR8) = test: antiviral activity, CPE inhibition assay; format: cell-based; conditions: read-out: IC50 against influenza A virus PR8
Description: as §1

cytotoxicity, MTT method = format: cell-based; conditions: human
Description: The cytotoxicities against Jurkat, MDA-MB-231, U2OS, HeLa, HCT-116, and A549 cell lines were assayed by MTT method with Adriamycin as a positive control. All the cell lines were purchased from Shanghai Institute of Cell Biology (Shanghai, China).

acetylcholinesterase = acetylcholinesterase (Homo sapiens, UniProt P22303); test: acetylcholinesterase inhibition, Ellman spectrophotometric method; format: biochemical; conditions: at 50 μg/mL; read-out: inhibition rate against acetylcholinesterase
Description: (§2) Evaluation of the inhibitory effects on acetylcholinesterase was performed by the spectrophotometric method developed by Ellman with slight modifications as reported, and on c-Met and PTP1B by using the enzyme-linked immunosorbent assay (ELISA) methodology.

[2] = biological target: T1, protein tyrosine phosphatase 1B (PTP1B) (Homo sapiens, UniProt P18031); test: biochemical; conditions: read-out: IC50, target inhibitory activity against PTP1B
T1 sequence (P18031 1-435): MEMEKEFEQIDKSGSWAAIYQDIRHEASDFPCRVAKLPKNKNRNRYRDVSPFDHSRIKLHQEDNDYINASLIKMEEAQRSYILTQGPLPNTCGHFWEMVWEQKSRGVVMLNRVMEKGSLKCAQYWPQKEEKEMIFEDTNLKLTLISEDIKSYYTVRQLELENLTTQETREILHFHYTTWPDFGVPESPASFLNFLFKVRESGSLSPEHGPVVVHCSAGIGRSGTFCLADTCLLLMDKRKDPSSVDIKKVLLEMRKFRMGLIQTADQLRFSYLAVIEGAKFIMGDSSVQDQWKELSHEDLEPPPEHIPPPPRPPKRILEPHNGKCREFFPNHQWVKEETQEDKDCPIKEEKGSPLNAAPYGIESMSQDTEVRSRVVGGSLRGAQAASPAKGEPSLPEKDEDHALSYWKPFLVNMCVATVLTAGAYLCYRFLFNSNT
Description: as §2

Sequence of acetylcholinesterase (P22303 32-614, species assumed): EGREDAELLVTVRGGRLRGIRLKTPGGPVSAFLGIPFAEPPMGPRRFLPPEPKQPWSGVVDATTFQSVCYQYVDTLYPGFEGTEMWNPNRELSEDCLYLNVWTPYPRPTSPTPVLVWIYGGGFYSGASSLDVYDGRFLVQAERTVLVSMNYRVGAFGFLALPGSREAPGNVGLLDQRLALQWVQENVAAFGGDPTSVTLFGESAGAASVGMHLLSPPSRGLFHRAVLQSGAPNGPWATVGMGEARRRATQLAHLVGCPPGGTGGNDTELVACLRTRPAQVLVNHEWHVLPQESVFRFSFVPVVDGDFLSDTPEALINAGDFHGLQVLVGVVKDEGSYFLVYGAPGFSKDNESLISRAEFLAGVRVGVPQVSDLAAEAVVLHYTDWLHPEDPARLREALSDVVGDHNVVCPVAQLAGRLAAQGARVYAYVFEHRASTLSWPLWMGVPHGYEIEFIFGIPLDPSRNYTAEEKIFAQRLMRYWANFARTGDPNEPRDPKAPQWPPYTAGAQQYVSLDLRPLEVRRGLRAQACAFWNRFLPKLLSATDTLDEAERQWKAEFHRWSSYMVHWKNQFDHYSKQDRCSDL

Compound `C=C1CCC2(O)CC3(CCC(C(C)C)C3C1)OO2` (stereo not shown) [Compound 1, Sinuketal] has an IC50 [1] of 80 µM, an IC50 (influenza A virus (H1N1); H1N1, read-out: IC50 against influenza A virus H1N1) of 172 µM and an IC50 (influenza A virus (PR8)) of 443 µM. It also gave an IC50 (cytotoxicity, MTT method; Jurkat cells, Jurkat cell line, read-out: IC50, cytotoxic activity toward Jurkat) of 24.9 µM, an IC50 (cytotoxicity, MTT method; MDA-MB-231 cells, MDA-MB-231 cell line, read-out: IC50, cytotoxic activity toward MDA-MB-231) of 32.3 µM and an IC50 (cytotoxicity, MTT method; U2OS cells, U2OS cell line, read-out: IC50, cytotoxic activity toward U2OS) of 41.7 µM. For the same compound, the inhibition at 50 µg/mL (acetylcholinesterase) was 20.2%.
In the case of `C=C(C)C1CC=C(C(=O)OC)CC(=O)CC2(C)CC(=O)C(CC(=O)C1)O2` (stereo not shown) [Compound 5, sinulin D], the IC50 [2] is reported as 47.5 µM.
Work on `CC(C)[C@@H]1CC[C@@](C)(O)[C@@H]2CCC(CO)=C[C@H]21` [Compound 11, 15-hydroxy-α-cadinol] yielded an IC50 [2] of 22.1 µM.
With `C=C(C)C1CCC(C)=CCCC(C)=CCCC2(C)OC2C1` [Compound 15, (1R,3S,4S,7E,11E)-3,4-epoxycembra-7,11,15-triene] the IC50 [2] was 12.5 µM.
`C=C(C)[C@@H]1C/C=C2\C(=O)O[C@@H](C[C@]3(C)CC(=O)[C@H](CC(=O)C1)O3)[C@@H]2O` [Compound 20, 5-episinuleptolide] gave an IC50 (cytotoxicity, MTT method; HCT-116 cells, HCT-116 cell line, read-out: IC50, cytotoxicity against HCT-116) of 33.3 µM and an IC50 (cytotoxicity, MTT method; HeLa cells, HeLa cell line, read-out: IC50, cytotoxicity against HeLa) of 11.6 µM.
`NC(=O)c1ncn([C@@H]2O[C@H](CO)[C@@H](O)[C@H]2O)n1` [ribavirin, reference compound] showed an IC50 (influenza A virus (H1N1); positive control, strain (H1N1 or PR8) not specified, read-out: IC50 of positive control, influenza A viruses) of 103 µM.
